In article PMC9369442, “Synthetic Peucedanocoumarin IV Prevents α-Synuclein Neurotoxicity in an Animal Model of Parkinson’s Disease” (International Journal of Molecular Sciences, 2022):
Where two headings read alike, the source gives them in different places.

Assay: Rat tissue distribution 15 min after intravenous bolus
Assay type: in vivo
Conditions: rats; for Kp at 15 min: Sprague-Dawley, rat, brain
Experimental: Figure 3 Pharmacokinetic analysis and tissue distribution of PCiv. (A) Pharmacokinetic analysis of blood PCiv levels at each indicated time point following intravenous or oral administration of PCiv (10 mg/kg) determined by ultra-performance liquid chromatography (n = 4 rats for oral and 5 rats for intravenous administration). (B) Quantification of PCiv levels in each indicated tissue (ng/g tissue weight) determined by ultra-performance liquid chromatography (n = 3 rats, tissues collected 15 min after intravenous PCiv administration (10 mg/kg). PCiv was dissolved in a vehicle (DMSO:PEG400:saline ratio of 5:70:25) for solubilization. The quantified data are expressed as means ± standard deviations.
In vivo rat pharmacokinetic studies were performed for intravenous and oral administration of PCiv as previously reported. Sprague-Dawley rats (8 weeks old, 260–280 g) were purchased from Orient Bio Inc. (Seongnam, Korea). Rats were maintained with free access to food and water under a 12:12 h light/dark cycle for 1 week. For pharmacokinetic studies, under anesthetic conditions (20 mg/kg tiletamine/zolazepam [Zoletil; Vibrac Laboratories, Carros, France] administered intramuscularly), the femoral vein and artery were surgically cannulated using polyethylene tubing (PE50; Clay Adams, Parsippany, NJ, USA) in fasted rats. Then, PCiv was administered intravenously and orally at a dose of 10 mg/kg (n = 4–5). The drug was dissolved in a vehicle (DMSO:PEG400:saline at a ratio of 5:70:25). Blood samples (approximately 100 μL) were collected at predetermined time points (0, 1, 5 (intravenous administration only), 15, 30, 60, 120, 180, 240, 360, and 480 min) after drug administration. […] The PCiv level was determined using a CapcellpakTM C18 5 μm column (250 × 1.5 mm, Shiseido Fine Chemical Co., Tokyo, Japan), as previously described. […] The tissue concentration levels were calculated as the PCiv amount (ng) per gram of organ weight.

C/C=C(\C)C(=O)O[C@H]1[C@H](OC(C)=O)c2c(ccc3ccc(=O)oc23)OC1(C)C (relative stereo) [PCiv, trans-4′-acetyl-3′-tigloylkhellactone]
Kp at 15 min (15 min after intravenous 10 mg/kg, read-out: brain tissue-to-plasma concentration ratio): 6.4 | Kp at 15 min (intravenous, 10 mg/kg, read-out: distribution to target organ compared with the plasma concentration): 6.4 | tissue-to-plasma concentration ratio, liver and kidneys (15 min after intravenous 10 mg/kg): low
